16 compounds from ChEMBL document CHEMBL1949531, “Synthesis and antiviral activities of novel gossypol derivatives” (Bioorg Med Chem Lett, 2012) can be followed below.

Data set [1] relates to Human immunodeficiency virus 1. The data set is described as follows: Antiviral activity against HIV1 3B infected human TZM-bl cells assessed as inhibition of viral replication by luciferase reporter assay. In kind it is functional, organism-based.
Data set [2] can be described thus: Cytotoxicity in human TZM-bl cells by MTT assay. In kind it is cell-based.
A short description of data set [3]: Selectivity index, ratio of CC50 for human TZM-bl cells to IC50 for HIV1 3B. In kind it is functional.
The target of another data set is Albumin (Homo sapiens, UniProt P02768). The data set is described as follows: Binding affinity to human serum albumin by fluorescence quenching assay. Format: ADME. To be noted: isolated protein.
The test system of another data set is Influenza A virus. The data set is described as follows: Antiviral activity against Influenza A virus (A/Vietnam/1194/2004(H5N1)) infected in MDCK cells assessed as inhibition of viral replication by plaque reduction assay. In kind it is functional, organism-based.
A short description of data set [4]: Cytotoxicity against MDCK cells by MTT assay. Format: cell-based, Canis lupus familiaris. To be noted: dog.
The nature of data set [5]: Selectivity index, ratio of CC50 for MDCK cells to IC50 for Influenza A virus (A/Vietnam/1194/2004(H5N1)). Format: functional.
[6] abbreviates: Human immunodeficiency virus 1, 3B, TZM-bl, read-out: IC50.

Chain of Albumin (P02768 whole entry): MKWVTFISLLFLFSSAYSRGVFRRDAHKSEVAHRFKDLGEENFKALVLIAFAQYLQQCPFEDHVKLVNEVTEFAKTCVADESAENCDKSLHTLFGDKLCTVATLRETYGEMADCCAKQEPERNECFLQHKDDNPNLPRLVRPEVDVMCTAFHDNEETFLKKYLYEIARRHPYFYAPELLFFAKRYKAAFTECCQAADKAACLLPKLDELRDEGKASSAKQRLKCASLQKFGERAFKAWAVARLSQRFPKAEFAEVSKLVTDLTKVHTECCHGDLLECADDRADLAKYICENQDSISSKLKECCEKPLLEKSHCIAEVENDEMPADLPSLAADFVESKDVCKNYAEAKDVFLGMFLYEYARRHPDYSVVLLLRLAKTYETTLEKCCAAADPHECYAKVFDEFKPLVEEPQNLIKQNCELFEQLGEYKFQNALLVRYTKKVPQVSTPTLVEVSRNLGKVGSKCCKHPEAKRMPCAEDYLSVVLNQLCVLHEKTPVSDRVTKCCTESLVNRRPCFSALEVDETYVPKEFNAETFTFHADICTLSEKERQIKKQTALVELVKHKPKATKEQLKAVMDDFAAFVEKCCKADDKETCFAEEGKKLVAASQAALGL

In the case of `Cc1cc2c(c(O)c1-c1c(C)cc3c(c1O)/C(=C/N[C@@H](Cc1ccc(O)cc1)C(=O)[O-])C(=O)C(O)=C3C(C)C)/C(=C/N[C@@H](Cc1ccc(O)cc1)C(=O)[O-])C(=O)C(O)=C2C(C)C.[Na+].[Na+]`, the figures for the IC50 (in data set [1] (setting [6]); with Influenza A virus) were 1.62 µM and 37.5 µM, respectively. Besides, the CC50 in data set [2] was 54.8 µM; in data set [4], above 37.5 µM. The “Ratio CC50/IC50” value in data set [3] was 33.81; in data set [5] it was above 1. The Ka on Albumin was 7.5353 ×10⁴ L/mol.
Consider `Cc1cc2c(c(O)c1-c1c(C)cc3c(c1O)/C(=C/N[C@H](C(=O)[O-])c1ccccc1)C(=O)C(O)=C3C(C)C)/C(=C/N[C@H](C(=O)[O-])c1ccccc1)C(=O)C(O)=C2C(C)C.[Na+].[Na+]`, for which the results for the IC50 (in data set [1] (setting [6]); in the data set with Influenza A virus) were 1.45 µM and 8.06 µM, respectively. Besides, the CC50 in data set [2] was 29.9 µM; in data set [4], above 40.3 µM. The “Ratio CC50/IC50” value is given as 20.64 in data set [3] and above 5 in data set [5]. The Ka on Albumin came to 1.4015 ×10⁴ L/mol.
`Cc1cc2c(c(O)c1-c1c(C)cc3c(c1O)/C(=C/N[C@@H](CC(C)C)C(=O)[O-])C(=O)C(O)=C3C(C)C)/C(=C/N[C@@H](CC(C)C)C(=O)[O-])C(=O)C(O)=C2C(C)C.[Na+].[Na+]`: the IC50 in data set [1] (setting [6]) was found to be 1.37 µM; in the data set on Influenza A virus, 8.46 µM. The CC50 in data set [2] is 42.8 µM; in data set [4], above 47.4 µM. Moreover, the “Ratio CC50/IC50” value in data set [3] is recorded as 31.26; in data set [5], above 5.6. The compound further had a Ka at Albumin of 1.3483 ×10⁴ L/mol.
In the case of `Cc1cc2c(c(O)c1-c1c(C)cc3c(c1O)/C(=C/N[C@@H](CO)C(=O)[O-])C(=O)C(O)=C3C(C)C)/C(=C/N[C@@H](CO)C(=O)[O-])C(=O)C(O)=C2C(C)C.[Na+].[Na+]`, the IC50 came to 2.88 µM in data set [1] (setting [6]) and 45.3 µM in the data set on Influenza A virus. In addition, the CC50 in data set [2] is 68.3 µM; in data set [4], above 45.3 µM. The “Ratio CC50/IC50” value was 23.72 in data set [3] and above 1 in data set [5]. On Albumin, this compound gave a Ka of 5.7756 ×10⁴ L/mol.
Take `Cc1cc2c(c(O)c1-c1c(C)cc3c(c1O)/C(=C/N[C@@H](Cc1c[nH]cn1)C(=O)[O-])C(=O)C(O)=C3C(C)C)/C(=C/N[C@@H](Cc1c[nH]cn1)C(=O)[O-])C(=O)C(O)=C2C(C)C.[Na+].[Na+]`: the IC50 in data set [1] (setting [6]) is 1.58 µM; with Influenza A virus, 41.2 µM. For the same compound, the CC50 in data set [2] is 51.2 µM; in data set [4], above 41.2 µM. Besides, the “Ratio CC50/IC50” value in data set [3] is 32.38; in data set [5], above 1. On Albumin, this compound had a Ka of 6.7205 ×10⁴ L/mol.
On to `NC12CC3CC(CC(C3)C1)C2` [AMANTADINE], for which the IC50 with Influenza A virus came out at 2.38 µM. Further, the CC50 in data set [4] was above 220 µM. In addition, the “Ratio CC50/IC50” value in data set [5] is on record as above 92.59.
With `COC(=O)[C@H](C)N/C=C1\C(=O)C(O)=C(C(C)C)c2cc(C)c(-c3c(C)cc4c(c3O)/C(=C/N[C@@H](C)C(=O)OC)C(=O)C(O)=C4C(C)C)c(O)c21`, the IC50 entry is “Not Active” in data set [1] (tzm-bl) and 1.16 µM with Influenza A virus. Besides, the results for the CC50 in data set [2] and in data set [4] were 25.6 µM and above 48.5 µM, respectively. The compound also displayed a Ka at Albumin of 1.0413 ×10⁴ L/mol. Further, the “Ratio CC50/IC50” value in data set [5] was above 41.77.
As to `Cc1cc2c(c(O)c1-c1c(C)cc3c(c1O)/C(=C/NC(C(=O)[O-])c1ccc(O)cc1)C(=O)C(O)=C3C(C)C)/C(=C/NC(C(=O)[O-])c1ccc(O)cc1)C(=O)C(O)=C2C(C)C.[Na+].[Na+]` (stereo unspecified), the results for the IC50 (in data set [1] (setting [6]); in the data set on Influenza A virus) were 1.34 µM and 7.76 µM, respectively. In addition, the CC50 was 22.2 µM in data set [2] and above 38.8 µM in data set [4]. Also, the entries for the “Ratio CC50/IC50” value in data set [3] and in data set [5] were 16.54 and above 5, respectively. Moreover, at Albumin, the Ka turned out to be 2.1607 ×10⁴ L/mol.
As to `Cc1cc2c(c(O)c1-c1c(C)cc3c(c1O)/C(=C/NCCCCCCCC(=O)[O-])C(=O)C(O)=C3C(C)C)/C(=C/NCCCCCCCC(=O)[O-])C(=O)C(O)=C2C(C)C.[Na+].[Na+]`, the IC50 in data set [1] (setting [6]) is 2.84 µM; in the data set on Influenza A virus it was 39.5 µM. Further, the CC50 is 29.6 µM in data set [2] and above 39.5 µM in data set [4]. Further, the “Ratio CC50/IC50” value in data set [3] is listed as 10.44; in data set [5] it was above 1. The compound also gave a Ka on Albumin of 2.8629 ×10⁴ L/mol.
As for `Cc1cc2c(c(O)c1-c1c(C)cc3c(c1O)/C(=C/N[C@@H](CS)C(=O)[O-])C(=O)C(O)=C3C(C)C)/C(=C/N[C@@H](CS)C(=O)[O-])C(=O)C(O)=C2C(C)C.[Na+].[Na+]`, the IC50 came out at 3.73 µM in data set [1] (setting [6]) and 43.4 µM in the data set with Influenza A virus. Further, the CC50 was 16.5 µM in data set [2] and above 43.4 µM in data set [4]. Besides, the results for the “Ratio CC50/IC50” value in data set [3] and in data set [5] were 4.42 and above 1, respectively. Besides, the Ka at Albumin is given as 8.2016 ×10³ L/mol.
In the case of `COC(=O)[C@H](CC(C)C)N/C=C1\C(=O)C(O)=C(C(C)C)c2cc(C)c(-c3c(C)cc4c(c3O)/C(=C/N[C@@H](CC(C)C)C(=O)OC)C(=O)C(O)=C4C(C)C)c(O)c21`, the IC50 entry is “Not Active” in data set [1] (tzm-bl) and 8.63 µM with Influenza A virus. Further, the CC50 was 33.6 µM in data set [2] and above 42.8 µM in data set [4]. The Ka on Albumin is recorded as 7.1236 ×10³ L/mol. In addition, the “Ratio CC50/IC50” value in data set [5] was above 5.
Compound `Cc1cc2c(c(O)c1-c1c(C)cc3c(c1O)/C(=C/NCC(=O)[O-])C(=O)C(O)=C3C(C)C)/C(=C/NCC(=O)[O-])C(=O)C(O)=C2C(C)C.[Na+].[Na+]` displayed a Ka at Albumin of 1.2462 ×10⁴ L/mol. In addition, the IC50 in the data set on Influenza A virus came to 9.87 µM. In data set [4], the CC50 is above 49.3 µM. The “Ratio CC50/IC50” value in data set [5] was above 5.
On to `COC(=O)[C@H](Cc1c[nH]c2ccccc12)N/C=C1\C(=O)C(O)=C(C(C)C)c2cc(C)c(-c3c(C)cc4c(c3O)/C(=C/N[C@@H](Cc3c[nH]c5ccccc35)C(=O)OC)C(=O)C(O)=C4C(C)C)c(O)c21`, for which the IC50 result in data set [1] (tzm-bl) is “Not Active”; in the data set with Influenza A virus it was 7.26 µM. Moreover, the values for the CC50 in data set [2] and in data set [4] were 22 µM and above 36.3 µM, respectively. Besides, on Albumin, the Ka was 2.262 ×10³ L/mol. Also, the “Ratio CC50/IC50” value in data set [5] is given as above 5.
In the case of `CC(=O)N[C@H]1[C@H]([C@H](O)[C@H](O)CO)OC(C(=O)O)=C[C@@H]1NC(=N)N` [ZANAMIVIR], in the data set with Influenza A virus, the IC50 worked out at 0.12 µM. For the same compound, the CC50 in data set [4] was above 100 µM. In addition, the “Ratio CC50/IC50” value in data set [5] is reported as above 836.
Turning to `COC(=O)C(N/C=C1\C(=O)C(O)=C(C(C)C)c2cc(C)c(-c3c(C)cc4c(c3O)/C(=C/NC(C(=O)OC)c3ccccc3)C(=O)C(O)=C4C(C)C)c(O)c21)c1ccccc1` (stereo unspecified), the figures for the IC50 entry (in data set [1] (tzm-bl); with Influenza A virus) were “Not Active” and 8.21 µM, respectively. Moreover, the CC50 in data set [2] is 31.5 µM; in data set [4] it was above 41.1 µM. The Ka on Albumin amounted to 4.2658 ×10⁴ L/mol. Moreover, the “Ratio CC50/IC50” value in data set [5] is above 5.
As to `CCOC(=O)CN/C=C1\C(=O)C(O)=C(C(C)C)c2cc(C)c(-c3c(C)cc4c(c3O)/C(=C/NCC(=O)OCC)C(=O)C(O)=C4C(C)C)c(O)c21`, the IC50 result was “Not Active” in data set [1] (tzm-bl) and 9.69 µM in the data set with Influenza A virus. In addition, the CC50 in data set [2] was 25.7 µM; in data set [4] it was above 48.5 µM. Besides, the Ka on Albumin came to 1.9028 ×10² L/mol. The “Ratio CC50/IC50” value in data set [5] is given as above 5.
